# From patent US8940892B2, “Triazine derivatives for use in the treatment of malaria” (CSIR, priority 2009, dated 2015)
# How the values were obtained:
# [1] = tested on: Plasmodium falciparum (FCR-3); assay: Antimalarial activity against Plasmodium falciparum FCR-3; type: cell-based; settings: FCR3, FCR-3 strain
# [2] = Cytotoxicity SRB assay (HeLa); type: cell-based; settings: human, HeLa cells, read-out: Cytotox SRB (HeLa) IC50
# [3] = tested on: P. falciparum strains resistant to Pyr and CG; settings: even against strains highly resistant to other DHFR inhibitors; cited from earlier work
# [4] = in vivo; cited from earlier work
SMILES,IC50 [1] [µM],IC50 [2] [µM],effective concentration in vitro [3],gastrointestinal (GI) tolerability [4]
NC1=NC(c2cccc(OC(F)(F)F)c2)N(CCCOc2ccc(Cl)cc2)C(N)=N1 (stereo not shown) [No. 40],> 50,–,–,–
NC1=NC(c2ccccc2)N(CCCOc2cccc(C(F)(F)F)c2)C(N)=N1 (stereo not shown) [No. 12],0.0307 ± 0.0102,14.2,–,–
NC1=NC(c2ccccc2)N(CCCOc2ccc(Cl)cc2)C(N)=N1 (stereo not shown) [No. 8],0.055 ± 0.01,39,–,–
Cc1cccc(C2N=C(N)N=C(N)N2CCCOc2ccc(Cl)cc2)c1 (stereo not shown) [No. 41],0.05 ± 0.04,–,–,–
NC1=NC(c2ccccc2)N(CCCOc2ccccc2Cl)C(N)=N1 (stereo not shown) [No. 15],0.171 ± 0.027,88.8,–,–
"CC1(C)N=C(N)N=C(N)N1c1ccc(Cl)cc1 [No. 1, Cycloguanil, reference compound]",8.15 ± 4.13,–,–,–
NC1=NC(c2ccccc2)N(CCOc2ccc(Cl)cc2)C(N)=N1 (stereo not shown) [No. 5],4.83 ± 0.689,–,–,–
NC1=NC(c2ccccc2)N(Cc2ccc(Cl)c(Cl)c2)C(N)=N1 (stereo not shown) [No. 2],4.32 ± 1.19,–,–,–
NC1=NC(c2cc(Cl)ccc2Cl)N(CCCOc2ccc(Cl)cc2)C(N)=N1 (stereo not shown) [No. 27],0.926 ± 0.128,10.9,–,–
COc1ccc(OCCCN2C(N)=NC(N)=NC2c2ccccc2)cc1 (stereo not shown) [No. 13],0.0603 ± 0.0087,253,–,–
NC1=NC(c2ccc(Cl)cc2)N(CCCOc2ccc(Cl)c(Cl)c2)C(N)=N1 (stereo not shown) [No. 34],0.061 ± 0.036,13.4,–,–
NC1=NC(c2cccc(Cl)c2F)N(CCCOc2ccc(Cl)cc2)C(N)=N1 (stereo not shown) [No. 33],0.679 ± 0.221,23,–,–
NC1=NC(c2cccc(Cl)c2F)N(CCCOc2ccc(Cl)c(Cl)c2)C(N)=N1 (stereo not shown) [No. 35],0.098 ± 0.005,13.6,–,–
NC1=NC(c2ccccc2)N(CCCOc2ccc(C(F)(F)F)cc2)C(N)=N1 (stereo not shown) [No. 17],0.0444 ± 0.0068,–,–,–
NC1=NC(c2ccccc2F)N(CCCOc2ccc(Cl)cc2)C(N)=N1 (stereo not shown) [No. 23],0.412 ± 0.08,52.2,–,–
NC1=NC(c2ccc(F)cc2F)N(CCCOc2ccc(Cl)cc2)C(N)=N1 (stereo not shown) [No. 38],0.163 ± 0.05,31.8,–,–
NC1=NC(c2ccccc2)N(CCCOc2ccc(Br)cc2)C(N)=N1 (stereo not shown) [No. 43],0.024 ± 0.017,–,–,–
NC1=NC(c2ccccc2)N(CCc2ccc(Cl)cc2)C(N)=N1 (stereo not shown) [No. 3],7.16 ± 0.626,–,–,–
NC1=NC(c2ccccc2C(F)(F)F)N(CCCOc2ccc(Cl)cc2)C(N)=N1 (stereo not shown) [No. 24],3.24 ± 0.451,19,–,–
NC1=NC(c2ccccc2Cl)N(CCCCOc2ccc(Cl)c(Cl)c2)C(N)=N1 (stereo not shown) [No. 7],2.57 ± 0.7,–,–,–
NC1=NC(c2ccccc2C(F)(F)F)N(CCCOc2ccc(Cl)c(Cl)c2)C(N)=N1 (stereo not shown) [No. 26],3.06 ± 0.042,11.8,–,–
NC1=NC(c2ccccc2)N(CCCOc2ccc(Cl)c(Cl)c2)C(N)=N1 (stereo not shown) [No. 9],0.0398 ± 0.01,33.5,–,–
NC1=NC(c2ccc(C(F)(F)F)cc2)N(CCCOc2ccc(Cl)cc2)C(N)=N1 (stereo not shown) [No. 10],3.37 ± 0.168,11,–,–

SMILES,IC50 [1] [µM],IC50 [2] [µM],effective concentration in vitro [3],gastrointestinal (GI) tolerability [4]
NC1=NC(c2ccc(Cl)cc2)N(CCCOc2ccc(Cl)cc2)C(N)=N1 (stereo not shown) [No. 32],0.156 ± 0.129,15.6,–,–
NC1=NC(c2ccccc2)N(CCCOc2ccc(Cl)cc2Cl)C(N)=N1 (stereo not shown) [No. 11],0.000151 ± 7.9e-05,32.6,–,–
COc1cc(C)ccc1OCCCN1C(N)=NC(N)=NC1c1ccccc1 (stereo not shown) [No. 42],0.047 ± 0.01,–,–,–
NC1=NC(c2ccc(C(F)(F)F)cc2)N(CCCCCOc2ccc(Cl)cc2)C(N)=N1 (stereo not shown) [No. 44],3.98 ± 0.612,–,–,–
COc1cccc(C2N=C(N)N=C(N)N2CCCOc2ccc(Cl)cc2)c1F (stereo not shown) [No. 37],0.077 ± 0.032,33.3,–,–
COc1ccc(C2N=C(N)N=C(N)N2CCCOc2ccc(Cl)cc2)cc1 (stereo not shown) [No. 19],0.046 ± 0.017,25,–,–
NC1=NC(c2ccccc2Cl)N(CCCOc2ccc(Cl)cc2)C(N)=N1 (stereo not shown) [No. 18],0.859,15.7,–,–
NC1=NC(c2ccccc2)N(CCCOc2ccc(F)cc2)C(N)=N1 (stereo not shown) [No. 16],0.395 ± 0.109,–,–,–
NC1=NC(c2ccc(Cl)cc2Cl)N(CCCOc2ccc(Cl)cc2)C(N)=N1 (stereo not shown) [No. 39],2.51 ± 0.667,12.1,–,–
NC1=NC(c2ccccc2)N(CCc2ccc(Cl)c(Cl)c2)C(N)=N1 (stereo not shown) [No. 4],4.77 ± 0.297,–,–,–
NC1=NC(c2ccc(F)cc2)N(CCCOc2ccc(Cl)c(Cl)c2)C(N)=N1 (stereo not shown) [No. 29],35.8 ± 8.97,–,–,–
NC1=NC(c2ccc(Cl)c(F)c2)N(CCCOc2ccc(Cl)c(Cl)c2)C(N)=N1 (stereo not shown) [No. 30],0.591 ± 0.077,14.5,–,–
NC1=NC(c2ccccc2Cl)N(CCCOc2ccc(Cl)c(Cl)c2)C(N)=N1 (stereo not shown) [No. 31],8.61 ± 0.998,13.7,–,–
NC1=NC(c2ccccc2)N(CCOc2ccc(Cl)c(Cl)c2)C(N)=N1 (stereo not shown) [No. 6],2.12 ± 0.75,–,–,–
NC1=NC(c2ccc(F)cc2)N(CCCOc2ccc(Cl)cc2)C(N)=N1 (stereo not shown) [No. 22],0.155 ± 0.048,–,–,–
NC1=NC(c2ccc(SC(F)(F)F)cc2)N(CCCOc2ccc(Cl)cc2)C(N)=N1 (stereo not shown) [No. 36],2.39 ± 0.03,–,–,–
NC1=NC(c2ccc(C(F)(F)F)cc2)N(CCCOc2ccc(Cl)c(Cl)c2)C(N)=N1 (stereo not shown) [No. 25],4.53 ± 0.631,13.1,–,–
NC1=NC(c2ccc(Cl)c(F)c2)N(CCCOc2ccc(Cl)cc2)C(N)=N1 (stereo not shown) [No. 20],1.59,13.7,–,–
NC1=NC(c2ccccc2)N(CCCOc2ccccc2F)C(N)=N1 (stereo not shown) [No. 14],0.525 ± 0.0762,67.6,–,–
NC1=NC(c2cccc(Cl)c2)N(CCCOc2ccc(Cl)cc2)C(N)=N1 (stereo not shown) [No. 21],0.156 ± 0.012,14.1,–,–
NC1=NC(c2ccccc2F)N(CCCOc2ccc(Cl)c(Cl)c2)C(N)=N1 (stereo not shown) [No. 28],0.337 ± 0.095,29.5,–,–
CC1(C)N=C(N)N=C(N)N1OCCCOc1cc(Cl)c(Cl)cc1Cl [WR99210],–,–,nanomolar (nM) range,unacceptable
